Like-named read-outs stand apart in the source and are kept apart here.
Columns and labels:
[1] = test system: A2780 cells; assay: In-vitro cell proliferation assay (SRB), A2780 cells; format: cell-based; settings: Homo sapiens, A2780, 72 h, A2780 cells, 72 hours, read-out: A2780 IC50
Method in brief: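 Viable cells measured by SRB staining after 6% TCA fixation, absorbance 570 nm. Media-only background subtracted; % inhibition derived at two compound concentrations.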

[2] = molecular target: T1, NAMPT (Homo sapiens, UniProt P43490); assay: Biochemical inhibition assay: NAMPT enzymatic reaction, NMN quantified by mass spectrometry; settings: read-out: Biochem IC50
T1 construct: His tag; host or cells: E. coli
T1 sequence (P43490 whole entry): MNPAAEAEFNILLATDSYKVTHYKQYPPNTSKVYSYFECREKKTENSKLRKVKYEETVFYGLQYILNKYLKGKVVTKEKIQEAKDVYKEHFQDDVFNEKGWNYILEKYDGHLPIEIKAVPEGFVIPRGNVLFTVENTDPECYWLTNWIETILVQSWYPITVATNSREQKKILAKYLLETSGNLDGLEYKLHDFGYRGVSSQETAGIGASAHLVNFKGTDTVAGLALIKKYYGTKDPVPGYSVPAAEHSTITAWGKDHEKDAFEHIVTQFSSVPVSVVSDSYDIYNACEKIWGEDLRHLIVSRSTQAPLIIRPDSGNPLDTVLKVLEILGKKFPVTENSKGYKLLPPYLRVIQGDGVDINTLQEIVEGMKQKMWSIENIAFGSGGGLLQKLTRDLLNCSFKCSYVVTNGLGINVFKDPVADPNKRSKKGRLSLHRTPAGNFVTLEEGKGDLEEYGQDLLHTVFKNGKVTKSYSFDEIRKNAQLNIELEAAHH
Method in brief: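 Inhibition of E. coli-expressed His-tagged human NAMPT, measured as NMN formation by mass spectrometry after a 30 min room-temperature reaction containing 1 μM NAM, 100 μM PRPP and 2.5 mM ATP.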

Structure (SMILES)	IC50 ([1]; SRB) [nM]	IC50 ([2]; NAMPT enzymatic assay) [nM]	IC50 ([1]; SRB assay) [nM]	IC50 ([2]; NAMPT enzymatic reaction) [nM]
O=C(NCc1ccc(S(=O)(=O)c2ccc(F)cc2C(F)(F)F)cc1)c1cnc2nccn2c1	100 to 1000	18.7	–	–
O=C(NCc1ccc(S(=O)(=O)c2cnc3n2CCCCC3)cc1)c1cc2ccncc2s1 [N-[(4-{5H,6H,7H,8H,9H-imidazo[1,2-a]azepine-3-sulfonyl}phenyl)methyl]thieno[2,3-c]pyridine-2-carboxamide]	0.8	3	–	–
CCc1cccc(S(=O)(=O)c2ccc(CNC(=O)c3cc4ccncc4s3)cc2)c1 [N-({4-[(3-ethylbenzene)sulfonyl]phenyl}methyl)thieno[2,3-c]pyridine-2-carboxamide]	–	–	2.7	6
CCCOc1cccc(S(=O)(=O)c2ccc(CNC(=O)c3cnc4[nH]ncc4c3)cc2)c1 [N-({4-[(3-propoxybenzene)sulfonyl]phenyl}methyl)-1H-pyrazolo[3,4-b]pyridine-5-carboxamide]	41	–	–	30.4
Cc1cccc(S(=O)(=O)c2ccc(CNC(=O)c3cnc4nccn4c3)cc2)c1C	46.9	–	–	4.1
O=C(NCc1ccc(S(=O)(=O)c2ccc(N3CCCC3)cc2)cc1)c1ccc2cn[nH]c2n1	4.5	6	–	–
O=C(NCc1ccc(S(=O)(=O)c2ccc(F)c(OCC(F)(F)F)c2)cc1)c1cnc2nccn2c1	6.5	2.4	–	–
Cc1nc(-c2cccc(S(=O)(=O)c3ccc(CNC(=O)c4cc5ccncc5s4)cc3)c2)no1	1	3.3	–	–
Cc1cc(Cl)cc(S(=O)(=O)c2ccc(CNC(=O)c3cc4ccncc4s3)cc2)c1 [N-({4-[(3-chloro-5-methylbenzene)sulfonyl]phenyl}methyl)thieno[2,3-c]pyridine-2-carboxamide]	1.6	–	–	4.5
O=C(NCc1ccc(S(=O)(=O)c2cccc3ccccc23)cc1)c1cnc2nccn2c1 [N-{[4-(naphthalene-1-sulfonyl)phenyl]methyl}imidazo[1,2-a]pyrimidine-6-carboxamide]	3.6	2.9	–	–
O=C(NCc1ccc(S(=O)(=O)c2ccc(Cl)c(Cl)c2)cc1)c1cnc2[nH]ncc2c1 [N-({4-[(3,4-dichlorobenzene)sulfonyl]phenyl}methyl)-1H-pyrazolo[3,4-b]pyridine-5-carboxamide]	5.5	–	–	6.7
Cc1ccc(S(=O)(=O)c2ccc(CNC(=O)c3cnc4[nH]ncc4c3)cc2)s1 [N-{[4-(5-methylthiophene-2-sulfonyl)phenyl]methyl}-1H-pyrazolo[3,4-b]pyridine-5-carboxamide]	34.7	22.3	–	–
Cc1cc(-n2cccn2)ccc1S(=O)(=O)c1ccc(CNC(=O)c2cc3ccncc3o2)cc1	6	6.2	–	–
COc1cccc(S(=O)(=O)c2ccc(CNC(=O)c3ccc4nccn4c3)cc2)c1F [N-({4-[(2-fluoro-3-methoxybenzene)sulfonyl]phenyl}methyl)imidazo[1,2-a]pyridine-6-carboxamide]	13.5	–	–	33
CCCCOc1ccc(S(=O)(=O)c2ccc(CNC(=O)c3cnc4[nH]ncc4c3)cc2)c(C)c1 [N-({4-[(4-butoxy-2-methylbenzene)sulfonyl]phenyl}methyl)-1H-pyrazolo[3,4-b]pyridine-5-carboxamide]	68.8	–	–	70.9
Cc1cncc(S(=O)(=O)c2ccc(CNC(=O)c3ccc4nccn4c3)cc2)c1 [N-{[4-(5-methylpyridine-3-sulfonyl)phenyl]methyl}imidazo[1,2-a]pyridine-6-carboxamide]	7.1	36.8	–	–
O=C(NCc1ccc(S(=O)(=O)c2ccc3nc(C(F)(F)F)cn3c2)cc1)c1cc2ccncc2s1 [N-({4-[2-(trifluoromethyl)imidazo[1,2-a]pyridine-6-sulfonyl]phenyl}methyl)thieno[2,3-c]pyridine-2-carboxamide]	3.9	3.1	–	–
CC(C)c1cccc(S(=O)(=O)c2ccc(CNC(=O)c3ccc4nccn4c3)cc2)c1 [N-[(4-{[3-(propan-2-yl)benzene]sulfonyl}phenyl)methyl]imidazo[1,2-a]pyridine-6-carboxamide]	3.49	12.4	–	–
O=C(NCc1ccc(S(=O)(=O)c2ccc(OC(F)(F)F)c(F)c2)cc1)c1cc2cnccc2[nH]1 [N-[(4-{[3-fluoro-4-(trifluoromethoxy)benzene]sulfonyl}phenyl)methyl]-1H-pyrrolo[3,2-c]pyridine-2-carboxamide]	20.5	26.2	–	–
O=C(NCc1ccc(S(=O)(=O)Nc2ccccc2CCO)cc1)c1cc2cnccc2[nH]1 [N-[(4-{[2-(2-hydroxyethyl)phenyl]sulfamoyl}phenyl)methyl]-1H-pyrrolo[3,2-c]pyridine-2-carboxamide]	19.9	18.8	–	–
Cc1ccc(F)cc1S(=O)(=O)c1ccc(CNC(=O)c2cnc3nccn3c2)cc1	35.1	2.7	–	–
O=C(NCc1ccc(S(=O)(=O)c2ccc(-n3cccn3)nc2)cc1)c1ccc2nccn2c1 [N-({4-[6-(1H-pyrazol-1-yl)pyridine-3-sulfonyl]phenyl}methyl)imidazo[1,2-a]pyridine-6-carboxamide]	1.9	4	–	–
Cn1ncc(S(=O)(=O)c2ccc(CNC(=O)c3cnc4nccn4c3)cc2)c1C(F)(F)F [N-({4-[1-methyl-5-(trifluoromethyl)-1H-pyrazole-4-sulfonyl]phenyl}methyl)imidazo[1,2-a]pyrimidine-6-carboxamide]	67.9	4	–	–
CCCCOc1ccc(S(=O)(=O)c2ccc(CNC(=O)c3cnc4[nH]ncc4c3)cc2)cc1 [N-({4-[(4-butoxybenzene)sulfonyl]phenyl}methyl)-1H-pyrazolo[3,4-b]pyridine-5-carboxamide]	22.5	–	–	27.5

Structure (SMILES)	IC50 ([1]; SRB) [nM]	IC50 ([2]; NAMPT enzymatic assay) [nM]	IC50 ([1]; SRB assay) [nM]	IC50 ([2]; NAMPT enzymatic reaction) [nM]
CCCOc1ccccc1NS(=O)(=O)c1ccc(CNC(=O)c2cc3cnccc3[nH]2)cc1 [N-({4-[(2-propoxyphenyl)sulfamoyl]phenyl}methyl)-1H-pyrrolo[3,2-c]pyridine-2-carboxamide]	–	–	100	52
CCCOc1ccc(S(=O)(=O)c2ccc(CNC(=O)c3cnc4nccn4c3)cc2)c(C)c1	51.8	–	–	10
COc1c(Cl)ccc(S(=O)(=O)c2ccc(CNC(=O)c3cc4ccncc4s3)cc2)c1Cl	6.7	–	–	5.1
O=C(NCc1ccc(S(=O)(=O)N2CCCCC2)cc1)c1cc2cccnc2s1 [N-{[4-(piperidine-1-sulfonyl)phenyl]methyl}thieno[2,3-b]pyridine-2-carboxamide]	–	–	14000	6150
CCCOc1ccc(S(=O)(=O)c2ccc(CNC(=O)c3cnc4nccn4c3)cc2)cc1	6.1	–	–	2.2
Cc1ccc(S(=O)(=O)c2ccc(CNC(=O)c3cnc4nccn4c3)cc2)c(Cl)c1	0.7	–	–	1.5
COc1ccc(C(C)=O)cc1S(=O)(=O)c1ccc(CNC(=O)c2cnc3nccn3c2)cc1	54.8	–	–	17.2
COc1c(Cl)ccc(S(=O)(=O)c2ccc(CNC(=O)c3cc4ccncc4o3)cc2)c1Cl	16.2	–	–	17.7
O=C(NCc1ccc(S(=O)(=O)c2cc(C(F)(F)F)ccc2Cl)cc1)c1cnc2nccn2c1	14.1	7	–	–
CCCCOc1ccc(S(=O)(=O)c2ccc(CNC(=O)c3ccc4nccn4c3)cc2)c(C)c1	22.4	–	–	10
COc1c(F)cccc1S(=O)(=O)c1ccc(CNC(=O)c2cnc3nccn3c2)cc1	100 to 1000	–	–	28.9
CCOc1cc(Cl)ccc1S(=O)(=O)c1ccc(CNC(=O)c2cc3cnccc3[nH]2)cc1	0.4	–	–	11.2
Cc1nc(C)c(S(=O)(=O)c2ccc(CNC(=O)c3cnc4[nH]ncc4c3)cc2)s1 [N-{[4-(dimethyl-1,3-thiazole-5-sulfonyl)phenyl]methyl}-1H-pyrazolo[3,4-b]pyridine-5-carboxamide]	16.4	38.6	–	–
O=C(NCc1ccc(S(=O)(=O)c2ccc(C(F)(F)F)c(Cl)c2)cc1)c1cc2cnccc2[nH]1	7.7	13.3	–	–
CCCCOc1ccc(S(=O)(=O)c2ccc(CNC(=O)c3ccc4nccn4c3)cc2)cc1	2.8	–	–	3.8
CCOc1cccc(F)c1S(=O)(=O)c1ccc(CNC(=O)c2cc3ccncc3o2)cc1 [N-({4-[(2-ethoxy-6-fluorobenzene)sulfonyl]phenyl}methyl)furo[2,3-c]pyridine-2-carboxamide]	28.3	–	–	17
O=C(NCc1ccc(S(=O)(=O)c2ccc(F)cc2C(F)(F)F)cc1)c1cc2cnccc2[nH]1	14.1	27	–	–
CCCOc1cccc(F)c1S(=O)(=O)c1ccc(CNC(=O)c2cc3ccncc3o2)cc1	14.2	–	–	13.3
Cc1cc(S(=O)(=O)c2ccc(CNC(=O)c3cnc4[nH]ncc4c3)cc2)ccc1F	8.3	–	–	5
Cc1cc(S(=O)(=O)c2ccc(CNC(=O)c3cc4ccncc4o3)cc2)c(C)cc1F	24.2	–	–	17.6
Cc1ccc(Cl)c(S(=O)(=O)c2ccc(CNC(=O)c3ccc4nccn4c3)cc2)c1	4.6	–	–	5.6
O=C(NCc1ccc(S(=O)(=O)c2ccc(-n3cccn3)cc2F)cc1)c1cc2ccncc2o1	8	18.4	–	–
O=C(NCc1ccc(S(=O)(=O)c2ccccc2)cc1)c1nc2cnccc2[nH]1 [N-{[4-(benzenesulfonyl)phenyl]methyl}-1H-imidazo[4,5-c]pyridine-2-carboxamide]	–	–	5370	7060
O=C(NCc1ccc(S(=O)(=O)c2cccc3c2oc2ccccc23)cc1)c1cnc2nccn2c1	2.9	1.7	–	–
